Patent US20240090503A1, “FUNGICIDAL OXADIAZOLES AND THEIR MIXTURES” (FMC CORPORATION, priority 2020, published 2024)

How the values were obtained:
[1] = test system: Phakopsora pachyrhizi (the causal agent of Asian soybean rust); assay: Test A: preventive spray on soybean seedlings, Asian soybean rust, visual disease rating; type: in vivo; conditions: soybean seedlings
Procedure, shortened: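 Preventive test: soybean seedlings received a run-off spray of compound suspended at the set ppm in 50/50 acetone/water plus 250 ppm PEG400, and one day later a P. pachyrhizi spore inoculum. Visual scoring (0 none to 100 full disease control) followed 24 h saturated incubation and 8 days' growth chamber, both at 22° C.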

[2] = test system: Puccinia recondita f. sp. tritici (the causal agent of wheat leaf rust); assay: Test C: preventive spray on wheat seedlings, wheat leaf rust, visual disease rating; type: in vivo; conditions: wheat seedlings
Procedure, shortened: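 Wheat seedlings sprayed to run-off with compound in acetone/water (50/50) with 250 ppm PEG400, then inoculated with spores the following day. After 24 h saturated humidity at 20° C. and 6 days in growth chamber at 20° C., disease rated visually as % control relative to untreated controls.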

[3] = test suspension 10 ppm, 100 = 100% disease control, 0 = no control
[4] = 10 ppm test suspension, 100 = 100% disease control, 0 = no control

Row | Structure (SMILES) | Test A disease control rating [1, 3] | Test C disease control rating ([2]; test suspension 10 ppm) | also measured
1 | CON=C(COC(=O)c1cnn(Cc2ccc(-c3noc(C(F)(F)F)n3)cc2)c1)c1ccccc1 [compound 245] | 100% | 86% | 
2 | CCOC(=O)c1cnn(C(C)c2ccc(-c3noc(C(F)(F)F)n3)s2)c1 (stereo not drawn) [compound 246] | 100% | 100% | 
3 | CCOC(=O)c1cnn(C(C)c2ccc(-c3noc(C(F)(F)F)n3)s2)c1 (stereo not drawn) [compound 247] | 100% | 100% | 
4 | CCCOC(=O)c1cnn(C(C)c2ccc(-c3noc(C(F)(F)F)n3)s2)c1 (stereo not drawn) [compound 248] | 100% | 100% | 
5 | CCCOC(=O)c1cnn(C(C)c2ccc(-c3noc(C(F)(F)F)n3)s2)c1 (stereo not drawn) [compound 249] | 100% | 100% | 
6 | CCCOC(=O)c1cnn(Cc2cc(-c3noc(C(F)(F)F)n3)cs2)c1 [compound 250] | 100% | 74% | 
7 | CC(C)OC(=O)c1cnn(Cc2cc(-c3noc(C(F)(F)F)n3)cs2)c1 [compound 251] | 100% | 74% | 
8 | Cn1c(C(F)(F)F)nn(Cc2ccc(-c3noc(C(F)(F)F)n3)cc2)c1=O [compound 267] |  |  | Test A disease control rating ([1]; test suspension 50 ppm): 99%; Test C disease control rating ([2]; test suspension 50 ppm): 74%
9 | CCOc1ccccc1OCCOC(=O)c1cnn(Cc2ccc(-c3noc(C(F)(F)F)n3)cc2)c1 [compound 268] | 100% | 86% | 
10 | CC1(COC(=O)c2cnn(Cc3ccc(-c4noc(C(F)(F)F)n4)cc3)c2)COC1 [compound 269] | 100% | 100% | 
11 | CC(C)ONC(=O)c1cnn(Cc2ccc(-c3noc(C(F)(F)F)n3)cc2)c1 [compound 270] | 100% | 100% | 
12 | CCOC(=O)c1cnn(Cc2cc(-c3noc(C(F)(F)F)n3)cs2)c1 [compound 271] | 99% | 68% | 
13 | CONC(=O)c1cnn(Cc2ccc(-c3noc(C(F)(F)F)n3)cc2)c1 [compound 272] | 100% | 100% | 
14 | CC(C)(C)ONC(=O)c1cnn(Cc2ccc(-c3noc(C(F)(F)F)n3)cc2)c1 [compound 273] | 100% | 100% | 
15 | N#CCCCOC(=O)c1cnn(Cc2ccc(-c3noc(C(F)(F)F)n3)cc2)c1 [compound 274] | 100% | 100% | 
16 | COC(=O)C=CCOC(=O)c1cnn(Cc2ccc(-c3noc(C(F)(F)F)n3)cc2)c1 [compound 275] | 100% | 100% | 
17 | O=C1c2ccnn2CCN1Cc1ccc(-c2noc(C(F)(F)F)n2)cc1 [compound 297] | 100% | 93% | 
18 | O=C(OCC#Cc1ccccc1)c1cnn(Cc2ccc(-c3noc(C(F)(F)F)n3)cc2)c1 [compound 299] | 100% | 86% | 
19 | CC(C#N)OC(=O)c1cnn(Cc2ccc(-c3noc(C(F)(F)F)n3)cc2)c1 (stereo not drawn) [compound 300] | 94% | 9% | 
20 | N#Cc1ccc(COC(=O)c2cnn(Cc3ccc(-c4noc(C(F)(F)F)n4)cc3)c2)cc1 [compound 301] | 100% | 100% | 
21 | CCOC(=O)c1cn(Cc2ccc(-c3noc(C(F)(F)F)n3)cc2)nn1 [compound 303] | 100% | 100% | 
22 | CCOC(=O)c1cnn(Cc2ccc(-c3noc(C(F)(F)F)n3)cc2F)c1 [compound 304] | 100% | 100% | 
23 | CCOC(=O)c1cnn(CCOc2ccc(-c3noc(C(F)(F)F)n3)cc2)c1 [compound 308] | 0% | 0% | 
24 | COc1ccc(C(O)c2ccc(-c3noc(C(F)(F)F)n3)cc2)cc1 (stereo not drawn) [compound 309] |  |  | Test A disease control rating ([1]; test suspension 50 ppm): 100%; Test C disease control rating ([2]; test suspension 50 ppm): 68%

Row | Structure (SMILES) | Test A disease control rating [1, 3] | Test C disease control rating ([2]; test suspension 10 ppm) | also measured
25 | CCOC(=O)c1cnn(Cc2cc(OC)c(-c3noc(C(F)(F)F)n3)s2)c1 [compound 336] | 0% | 0% | 
26 | CCC#CCOC(=O)c1cnn(Cc2ccc(-c3noc(C(F)(F)F)n3)cc2)c1 [compound 339] | 100% | 98% | 
27 | CN1CCCC1COC(=O)c1cnn(Cc2ccc(-c3noc(C(F)(F)F)n3)cc2)c1 (stereo not drawn) [compound 340] | 100% | 94% | 
28 | COC(=O)c1cccc2c1cnn2Cc1ccc(-c2noc(C(F)(F)F)n2)cc1 [compound 341] | 100% | 100% | 
29 | C[Si](C)(C)C#CCOC(=O)c1cnn(Cc2ccc(-c3noc(C(F)(F)F)n3)cc2)c1 [compound 348] | 100% | 96% | 
30 | CC(=O)COC(=O)c1cnn(Cc2ccc(-c3noc(C(F)(F)F)n3)cc2)c1 [compound 349] | 100% | 100% | 
31 | CON=C(C)COC(=O)c1cnn(Cc2ccc(-c3noc(C(F)(F)F)n3)cc2)c1 [compound 350] | 100% | 99% | 
32 | FC(F)(F)c1nc(-c2ccc(CN3CCc4ccccc4C3)cc2)no1 [compound 351] | 92% | 67% | 
33 | FC(F)(F)c1nc(-c2ccc(CCCn3ccc(-c4ccccc4)n3)cc2)no1 [compound 360] | 100% | 68% | 
34 | FC(F)(F)c1nc(-c2ccc(CCCn3ccc(-c4ccc(Cl)cc4)n3)cc2)no1 [compound 361] | 100% | 0% | 
35 | CCOC(=O)c1cnn(COCc2ccc(-c3noc(C(F)(F)F)n3)cc2)c1 [compound 362] |  |  | Test A disease control rating ([1]; test suspension 50 ppm): 100%; Test C disease control rating ([2]; test suspension 50 ppm): 100%
36 | O=C(O)c1cnn(CCCc2ccc(-c3noc(C(F)(F)F)n3)cc2)c1 [compound 363] |  |  | Test A disease control rating ([1]; test suspension 50 ppm): 100%; Test C disease control rating ([2]; test suspension 50 ppm): 100%
37 | CCOC(=O)C1=NOC(Cc2ccc(-c3noc(C(F)(F)F)n3)s2)C1 (stereo not drawn) [compound 366] |  |  | Test A disease control rating ([1]; test suspension 50 ppm): 100%; Test C disease control rating ([2]; test suspension 50 ppm): 100%
38 | O=C(O)C1=NOC(Cc2ccc(-c3noc(C(F)(F)F)n3)s2)C1 (stereo not drawn) [compound 367] |  |  | Test A disease control rating ([1]; test suspension 50 ppm): 96%; Test C disease control rating ([2]; test suspension 50 ppm): 67%
39 | CNC(=O)C1=NOC(Cc2ccc(-c3noc(C(F)(F)F)n3)s2)C1 (stereo not drawn) [compound 368] |  |  | Test A disease control rating ([1]; test suspension 50 ppm): 100%; Test C disease control rating ([2]; test suspension 50 ppm): 100%
40 | CCNC(=O)C1=NOC(Cc2ccc(-c3noc(C(F)(F)F)n3)s2)C1 (stereo not drawn) [compound 369] |  |  | Test A disease control rating ([1]; test suspension 50 ppm): 100%; Test C disease control rating ([2]; test suspension 50 ppm): 100%
41 | C#CCOC(=O)c1cnn(CCCc2ccc(-c3noc(C(F)(F)F)n3)cc2)c1 [compound 374] | 100% | 96% | 
42 | Cc1ccc(F)cc1OCc1ccc(-c2noc(C(F)(F)F)n2)s1 [compound 375] | 100% | 98% | 
43 | CCOC(=O)CNC(=O)c1cnn(Cc2ccc(-c3noc(C(F)(F)F)n3)cc2)c1 [compound 378] | 100% | 98% | 
44 | CN(CC#N)C(=O)c1cnn(Cc2ccc(-c3noc(C(F)(F)F)n3)cc2)c1 [compound 379] |  |  | Test A disease control rating [1, 4]: 100%; Test C disease control rating [2, 4]: 97%
45 | CCONC(=O)c1cnn(Cc2ccc(-c3noc(C(F)(F)F)n3)cc2)c1 [compound 380] |  |  | Test A disease control rating [1, 4]: 100%; Test C disease control rating [2, 4]: 100%
46 | Nc1cnn(Cc2ccc(-c3noc(C(F)(F)F)n3)cc2)c1 [compound 381] |  |  | Test A disease control rating [1, 4]: 0%; Test C disease control rating [2, 4]: 0%
47 | O=[N+]([O-])c1cnn(Cc2ccc(-c3noc(C(F)(F)F)n3)cc2)c1 [compound 382] |  |  | Test A disease control rating [1, 4]: 100%; Test C disease control rating [2, 4]: 96%
48 | FC(F)(F)c1nc(-c2ccc(Cn3cc(I)cn3)cc2)no1 [compound 383] |  |  | Test A disease control rating [1, 4]: 71%; Test C disease control rating [2, 4]: 68%
